Values quoted from earlier work in patent US12544394B2, “Compositions and methods for treatment of fibrosis” (priority 2017, dated 2026).

Assays:
[1] = tested on: liver fibrosis; conditions: DLPC fed in chow (U.S. Pat. No. 5,284,835)
[2] = humans, oral route of administration
[3] = tested on: NASH; conditions: patients with biopsy proven NASH, oral vitamin E supplementation
[4] = tested on: steatosis; conditions: vitamin E 400-1000 IU/day for 4-10 months

| Compound | liver fibrosis [1] | clinical effect [2] | liver histology outcome [3] | mean AST levels after treatment ([4]; decreased from 104.+−.61 IU/L, P<0.002) | mean ALT levels after treatment ([4]; decreased from 175.+−.106 IU/L, P<0.01) |
| --- | --- | --- | --- | --- | --- |
| CCCCCCCCCCCC(=O)OC[C@H](COP(=O)([O-])OCC[N+](C)(C)C)OC(=O)CCCCCCCCCCC [DLPC, 1,2-dilauroyl-sn-glycero-3-phosphocholine] | slow liver fibrosis | no significant clinical effect |  |  |  |
| Cc1c(C)c2c(c(C)c1O)CC[C@@](C)(CCC[C@H](C)CCC[C@H](C)CCCC(C)C)O2 [vitamin E, Alpha-tocopherol] |  |  | improvement in hepatic steatosis and lobular inflammation but not portal inflammation or fibrosis | 33.+−.11 IU/L | 40.+−.26 IU/L |
